Key:
[1] = pH of a 2 mass% aqueous solution; type: physicochemical
SD rats [2] = experiment: 45Ca level in blood plasma after oral 45Ca calcium chloride in rats fed the test diet for 10 days (intestinal calcium absorption capacity); type: in vivo; conditions: test diet (1.88 mass% in feed, 15 g/day, 10 days) vs control diet; 24 h fast; plasma 30 minutes, 1 hour and 2 hours after oral ^45Ca calcium chloride; Scheffe method, significant level less than 1%
Experimental: Rats (8-week-old, male, SD rats), 10 rats consisting of one group, were each fed with 15 g/day of a control diet or a glucose 1-phosphate sodium salt diet as shown in Table 1 for 10 days. As the glucose 1-phosphate sodium salt, product of Solchem (Italy) was employed and the feed was adjusted to have a calcium concentration of 0.2 mass% and a P concentration of 0.4 mass%. The rats were allowed to take distilled water ad libitum.
After the rats were fasted for 24 hours, they were orally administered with 1.5 mL (containing ^45CalµCi), per average weight, of a 1 mg/mL calcium chloride solution containing ^45Ca singly. The blood plasma was obtained from about 0.5 mL of the blood collected from their carotid artery 30 minutes, 1 hour and 2 hours after administration. The ^45Ca level in 100 µL of the blood plasma was measured by a liquid scintillation counter.
A change in the ^45Ca level in 100 µL of the blood plasma separated from the […] 30 minutes, 1 hour and 2 hours after the administration of a ^45Ca-containing calcium chloride solution was statically analyzed by the Scheffe method. […]

SD rats [3] = experiment: duration of the intestinal calcium absorption capacity improving effect after feeding is terminated (45Ca level in plasma); type: in vivo; conditions: test diet 10 days, then control diet; for 3 days after termination; relative to the control group
Text: As in Example 1, 15 g/day of a control diet and a test diet as shown in Table 1 were fed to groups of rats (8-week-old, male, SD rats), each group consisting of 8 rats, for 10 days, respectively. The rat groups fed with the test diet were divided into three groups and as the feed after 10 days, the control diet was fed to each group and feeding of the glucose 1-phosphate sodium salt was terminated. The termination period was 1 day, 3 days and 7 days. The ^45Ca level in the blood plasma after completion of the feeding period was measured in accordance with the method of Example 1.

Compound: O=P(O)(O)OC1O[C@H](CO)[C@@H](O)[C@H](O)[C@H]1O (stereo partly shown) [Glucose-1-phosphoric acid, reference compound]
- pH of a 2 mass% aqueous solution [1]: 1.5

Compound: glucose 1-phosphate sodium salt
- ^45Ca level in the blood plasma (SD rats [2]): statistically significant increase
- ^45Ca level in the plasma after feeding was terminated (SD rats [3]): significant increase
- pH of a 2 mass% aqueous solution [1]: about 8.0

— patent EP1477171A1, “Intestinal mineral absorption capacity improver” (Kao Corporation, priority 2003, dated 2004)
